In ChEMBL document CHEMBL5352419, “Design, synthesis, and biological evaluation of tetrahydroquinoline amphiphiles as membrane-targeting antimicrobials against pathogenic bacteria and fungi” (Eur J Med Chem, 2022):
≈ marks a conversion by molar mass, not a printed value.

Experiments:
[1] = system: Candida albicans; test: Antimicrobial activity against Candida albicans ATCC10231 assessed as fungal growth inhibition incubated for 48 hrs by Sabouraud Dextrose broth based dilution assay; assay type: functional
[2] = system: Candida albicans; test: Antimicrobial activity against Candida albicans CMCC98001 assessed as fungal growth inhibition incubated for 48 hrs by Sabouraud Dextrose broth based dilution assay; assay type: functional
[3] = system: Staphylococcus aureus; test: Antimicrobial activity against Staphylococcus aureus ATCC29213 assessed as bacterial growth inhibition incubated for 24 hrs by Muller Hinton broth based dilution assay; assay type: functional
[4] = system: Staphylococcus aureus; test: Antimicrobial activity against methicillin-resistant Staphylococcus aureus N315 assessed as bacterial growth inhibition incubated for 24 hrs by Muller Hinton broth based dilution assay; assay type: functional
[5] = system: Staphylococcus aureus; test: Antimicrobial activity against methicillin-resistant Staphylococcus aureus NCTC10442 assessed as bacterial growth inhibition incubated for 24 hrs by Muller Hinton broth based dilution assay; assay type: functional
[6] = system: Escherichia coli; test: Antimicrobial activity against Escherichia coli ATCC25922 assessed as bacterial growth inhibition incubated for 24 hrs by Muller Hinton broth based dilution assay; assay type: functional
[7] = Hemolytic activity in rabbit RBC incubated for 1 hr by absorbance based microplate reader assay; assay type: toxicity, cell-based, Oryctolagus cuniculus, Erythrocyte; settings: rabbit red blood cells (erythrocytes)
[8] = system: Pseudomonas aeruginosa; test: Antimicrobial activity against Pseudomonas aeruginosa ATCC9027 assessed as bacterial growth inhibition incubated for 24 hrs by Muller Hinton broth based dilution assay; assay type: functional
[9] = system: Acinetobacter baumannii; test: Antimicrobial activity against Acinetobacter baumannii ATCC17978 assessed as bacterial growth inhibition incubated for 24 hrs by Muller Hinton broth based dilution assay; assay type: functional
[10] = system: Acinetobacter baumannii; test: Antimicrobial activity against Acinetobacter baumannii R2889 assessed as bacterial growth inhibition incubated for 24 hrs by Muller Hinton broth based dilution assay; assay type: functional
[11] = system: Klebsiella pneumoniae; test: Antimicrobial activity against Klebsiella pneumoniae ATCC10031 assessed as bacterial growth inhibition incubated for 24 hrs by Muller Hinton broth based dilution assay; assay type: functional
[12] = system: Klebsiella pneumoniae; test: Antimicrobial activity against Klebsiella pneumoniae ATCC14581 assessed as bacterial growth inhibition incubated for 24 hrs by Muller Hinton broth based dilution assay; assay type: functional
[13] = system: Escherichia coli; test: Induction of drug resistance in Escherichia coli ATCC25922 assessed as fold increase in MIC at sub-inhibitory concentration incubated for 21 to 22 passages; assay type: functional
[14] = system: Staphylococcus aureus; test: Induction of drug resistance in Staphylococcus aureus ATCC29213 assessed as fold increase in MIC at sub-inhibitory concentration incubated for 21 to 22 passages; assay type: functional

Compound	MIC [1] [µg/mL]	MIC [2] [µg/mL]	MIC [3] [µg/mL]	MIC [4] [µg/mL]	MIC [5] [µg/mL]	MIC [6] [µg/mL]	HC50 at 1 h [7] [µg/mL]	MIC [8] [µg/mL]	MIC [9] [µg/mL]	MIC [10] [µg/mL]	MIC [11] [µg/mL]	MIC [12] [µg/mL]	fold change (FC) [13]	fold change (FC) [14]
CCCCCCCN1CCCc2cc(OCC(=O)N[C@@H](CCCNC(=N)N)C(=O)OC)ccc21	25 (≈ 52.6 µM)	12.5 (≈ 26.3 µM)	3.12 (≈ 6.57 µM)	1.56 (≈ 3.28 µM)	1.56 (≈ 3.28 µM)	12.5 (≈ 26.3 µM)	> 200	12.5 (≈ 26.3 µM)	12.5 (≈ 26.3 µM)	12.5 (≈ 26.3 µM)	6.25 (≈ 13.1 µM)	6.25 (≈ 13.1 µM)	–	–
CCCCCCCCCN1CCCc2cc(OCC(=O)N[C@@H](CCCNC(=N)N)C(=O)N[C@@H](CCCNC(=N)N)C(=O)N[C@@H](CCCNC(=N)N)C(=O)OC)ccc21	> 50	50 (≈ 61.3 µM)	3.12 (≈ 3.83 µM)	1.56 (≈ 1.91 µM)	1.56 (≈ 1.91 µM)	12.5 (≈ 15.3 µM)	> 200	25 (≈ 30.6 µM)	12.5 (≈ 15.3 µM)	50 (≈ 61.3 µM)	12.5 (≈ 15.3 µM)	12.5 (≈ 15.3 µM)	–	–
CC(C)=CCN1CCCc2cc(OCCCCCCNC(=N)N)ccc21	12.5 (≈ 34.9 µM)	12.5 (≈ 34.9 µM)	1.56 (≈ 4.35 µM)	0.78 (≈ 2.18 µM)	0.78 (≈ 2.18 µM)	6.25 (≈ 17.4 µM)	184	25 (≈ 69.7 µM)	25 (≈ 69.7 µM)	12.5 (≈ 34.9 µM)	6.25 (≈ 17.4 µM)	6.25 (≈ 17.4 µM)	–	–
CCCCCN1CCCc2cc(OCCCCNC(=N)N)ccc21	50 (≈ 150 µM)	50 (≈ 150 µM)	1.56 (≈ 4.69 µM)	1.56 (≈ 4.69 µM)	1.56 (≈ 4.69 µM)	12.5 (≈ 37.6 µM)	178	25 (≈ 75.2 µM)	12.5 (≈ 37.6 µM)	25 (≈ 75.2 µM)	6.25 (≈ 18.8 µM)	12.5 (≈ 37.6 µM)	–	–
CCCCCCCCCN1CCCc2cc(OCC(=O)N[C@@H](CCCNC(=N)N)C(=O)OC)ccc21	3.12 (≈ 6.2 µM)	3.12 (≈ 6.2 µM)	3.12 (≈ 6.2 µM)	1.56 (≈ 3.1 µM)	1.56 (≈ 3.1 µM)	6.25 (≈ 12.4 µM)	> 200	12.5 (≈ 24.8 µM)	6.25 (≈ 12.4 µM)	6.25 (≈ 12.4 µM)	3.12 (≈ 6.2 µM)	3.12 (≈ 6.2 µM)	–	–
CC(C)=CCN1CCCc2cc(OCCCCCCCCCCCCNC(=N)N)ccc21	0.78 (≈ 1.76 µM)	0.78 (≈ 1.76 µM)	1.56 (≈ 3.52 µM)	0.78 (≈ 1.76 µM)	0.78 (≈ 1.76 µM)	12.5 (≈ 28.2 µM)	> 200	50 (≈ 113 µM)	12.5 (≈ 28.2 µM)	12.5 (≈ 28.2 µM)	3.12 (≈ 7.06 µM)	3.12 (≈ 7.06 µM)	–	–
CC1(C)S[C@@H]2[C@H](NC(=O)[C@H](N)c3ccc(O)cc3)C(=O)N2[C@H]1C(=O)O	–	–	–	–	–	–	–	–	–	–	–	–	16	–
CCCCCCCCCN1CCCc2cc(OCC(=O)N[C@@H](CCCNC(=N)N)C(=O)N[C@@H](CCCNC(=N)N)C(N)=O)ccc21	> 50	50 (≈ 77.5 µM)	3.12 (≈ 4.85 µM)	3.12 (≈ 4.85 µM)	3.12 (≈ 4.85 µM)	25 (≈ 38.8 µM)	> 200	25 (≈ 38.8 µM)	12.5 (≈ 19.4 µM)	50 (≈ 77.5 µM)	6.25 (≈ 9.69 µM)	6.25 (≈ 9.69 µM)	–	–
CC(C)=CCN1CCCc2cc(OCCCCCCCCCCNC(=N)N)ccc21	1.56 (≈ 3.76 µM)	1.56 (≈ 3.76 µM)	1.56 (≈ 3.76 µM)	0.78 (≈ 1.88 µM)	1.56 (≈ 3.76 µM)	12.5 (≈ 30.1 µM)	> 200	50 (≈ 121 µM)	25 (≈ 60.3 µM)	12.5 (≈ 30.1 µM)	3.12 (≈ 7.54 µM)	6.25 (≈ 15.1 µM)	–	–
CCn1cc(C(=O)O)c(=O)c2cc(F)c(N3CCNCC3)cc21	–	–	–	–	–	–	–	–	–	–	–	–	–	1024
